Results reported in patent US6280760A, “Peptide-coated implants and methods for producing same” (Merck Patent Gesellschaft mit beschraenkter Haftung, priority 1997, dated 2001).

What was measured:
MC3T3 H1 osteoblasts [1] = experiment: Proliferation of MC3T3 H1 osteoblasts on RGD peptide-coated PMMA bone cement shaped articles (WST-1 test); type: cell-based, mouse
Description: For the covalent coupling of acrylate peptide 3, type iiia, to polymerized PMMA bone cement shaped articles, a coating process which was described in Example 3 was selected.
MC3T3 H1 mouse osteoblasts were then adhered to these RGD peptide-coated bone cement shaped articles as likewise described in Example 3, but with two differences: 12,000 cells/cm^2 instead of 48,000 cells/cm^2 were inoculated and the adhesion time was two hours instead of one hour. Additionally, only three different peptide concentrations were investigated in the coating solution: 0.01 μM, 1 μM and 100 μM.
After washing off non-adherent cells, the MC3T3 H1 osteoblasts were cultured under 95% atmospheric humidity and 5% CO2 at 37° C. in serum-containing (10%) culture medium for a period of 15 days. During the course of this, the medium was changed twice per week and after 1, 2, 3, 4, 5, 10 and 15 days the cell count was determined by means of the WST-1 test by Boehringer Mannheim, Germany. In each case a typical exponential course of the cell proliferation of the cultured osteoblasts was seen here (FIG. 13). The maximally achieved cell count was directly dependent on the RGD peptide concentration in the coating solution. Thus after 15 culturing days per cm^2, about 1,000,000 cells (100 μM peptide), about 550,000 cells (1 μM peptide), about 300,000 cells (0.01 μM peptide) or about 230,000 cells were achieved (control without peptide). At the highest peptide concentration of 100 μM, an approximately 4- to 5-fold increase in the cell proliferation in comparison with uncoated samples was thus observed.

human platelets = experiment: Adhesion of human platelets to PMMA bone cement shaped articles coated with cell-selective acrylate peptides; type: cell-based; conditions: for cell adhesion, calculated Abs (405 nm), platelets: first part experiment
Description: (§1) The model used for material coating with RGD peptides of different cell selectivity to obtain implants having locally differentiated bioactive coating patterns which should stimulate the adhesion of different cell species was polymerized PMMA bone cement shaped articles. To these were covalently coupled two RGD peptides of different cell selectivity. In this case acrylate peptide 3, type iiia, having a selectivity for alphav beta3 -/alphav beta5 -integrin-bearing osteoblasts, and acrylate peptide 5, type iiia, having a selectivity for […] -positive platelets were bonded to the PMMA shaped articles as described for Example 3.
(§2) a. In the first part experiment, PMMA shaped articles were coated with the acrylate peptides 3 and 5 in concentrations in the coating solution of 100 μM, 10 μM and 1 μM in each case. These RGD peptide-coated materials were then inoculated in parallel with osteoblasts and platelets and their cell adhesion was determined.
(§3) MC3T3 H1 osteoblasts (350,000 cells/cm^2) and human platelets (50 million cells/cm^2) were in each case inoculated in parallel both onto acrylate peptide 3- and acrylate peptide 5-coated PMMA shaped articles and their cell adhesion was determined as described in Example 3.
Human platelets were prepared following the process of Shattil and Brass (J. Biol. Chem. 262:992-1000, 1987).
(§4) b. In the second part experiment, PMMA shaped articles were likewise coated with the acrylate peptides 3 and 5, but only in a concentration in the coating solution of 100 μM in each case. These RGD peptide-coated materials were then inoculated in parallel with osteoblasts, platelets or an osteoblast/platelet mixture and their cell adhesion was determined. MC3T3 H1 osteoblasts (350,000 cells/cm^2), human platelets (50 million cell/cm^2) and a cell mixture (350,000 osteoblasts/cm^2 […] 50 million platelets/cm^2) were in each case inoculated in parallel both onto acrylate peptide 3- and acrylate peptide 5-coated PMMA shaped articles and their cell adhesion was determined as described in Example 3.

[2] = system: osteoblasts/platelets mixture; experiment: Adhesion of an osteoblast/platelet mixture to PMMA bone cement shaped articles coated with cell-selective acrylate peptides; type: cell-based, mouse, human; conditions: second part experiment; 100 μM peptide in the coating solution
Procedure: as §4

MC3T3 H1 osteoblasts [3] = experiment: Adhesion of MC3T3 H1 osteoblasts to PMMA moulded articles coated with acrylate RGD peptides; type: cell-based, mouse
Procedure: For the covalent coupling of these peptides to polymerized PMMA (polymethyl methacrylate) surfaces, appropriate shaped articles of differing porosity (diameter: 10 mm; height: 2 mm) were prepared from three different PMMA components.
Bone cement based on PMMA (Merck KGaA, Germany, Licence No. 5181.00.00) corresponding to the product description (40 g of powder+20 ml of liquid).
10 g of PMMA/PHEMA (polyhydroxyethyl methacrylate) granules, particle size 0.5-0.6 mm (Biomet) were mixed with 1.3 ml of an HEMA solution (68.6% HEMA, 29.4% TEGMA [triethylene glycol dimethacrylate], 2% tBPB, [tert-butyl peroxybenzoate]) and adhered by means of this to a porous support material.
10 g of PMMA granules (Plex Y7H, Rohm, Germany), particle fraction 0.7-2 mm were mixed with 1.5 ml of a methyl methacrylate (MMA) solution (68.6% MMA, 29.4% TEGMA, 2% tBPB) and adhered by this means to a porous support material.
For the covalent coupling of the acrylate peptides to the prepolymerized PMMA moulded articles, stock solutions of the acrylate peptides 1, 2, 3 and 4 were prepared in a final concentration of 100 μM in each case in DMSO/0.2% camphorquinone (w/v). Then, by dilution with isopropanol/0.2% camphorquinone (w/v), concentration series having final peptide concentrations of 0.1 nM, 1 nM, 10 nM, 100 nM, 1 μM and 10 μM in each case were prepared. The moulded articles were incubated in daylight and at room temperature for 2 hours and then stored at 4° C. in the dry state. Before use, the samples were washed with PBS, pH 7.4, to remove unbound peptides and stored at 4° C. in PBS, pH 7.4, overnight.
By addition of 250 μl/moulded article each of a 5% strength BSA solution in PBS, pH 7.4, and subsequent incubation for 2 hours at room temperature and washing once with PBS, pH 7.4, non-specific cell-binding sites were blocked.
Subsequently, the adhesion of osteoblasts of the MC3T3 H1 line, obtained from the calvaria of neonatal mice (Heermeier et al., 1995, Cells and Materials 5: 309-321) to the above-described peptide-coated surfaces was investigated.
The MC3T3 H1 osteoblasts were inoculated at an inoculation density of 48,000 cells/cm^2, as described above, in Costar 48-well plates, with PMMA moulded articles coated with RGD peptide and then incubated for 1 hour at 37° C., 95% atmospheric humidity and 5% CO2. Cells non-adhered during the experiment were then washed off twice with PBS, pH 7.4.
The quantification of the adhered cells was carried out indirectly via the activity determination of the cellular enzyme N-acetylhexosaminidase using an appropriate standard curve according to the method of Landegren (1984, J. Immunol. Methods, 67: 379-388).

MC3T3 H1 osteoblasts [4] = experiment: Adhesion of MC3T3 H1 osteoblasts to PMMA bone cement shaped articles coated with cell-selective acrylate peptides; type: cell-based, mouse; conditions: for cell adhesion, calculated Abs (405 nm), osteoblasts: first part experiment
Description: as §1, §2, §3, §4

[5] = 1 μM peptide in the coating solution
[6] = 100 μM peptide in the coating solution
[7] = 10 μM peptide in the coating solution
[8] = second part experiment, 100 μM peptide in the coating solution

EC50 (MC3T3 H1 osteoblasts [3]; different PMMA moulded articles, read-out: half-maximal cell bindings, RGD peptide concentration in the coating solution): 0.001 to 10 µM
Substance: cyclo(RGDf[acrylic-ahx-tEG-K]) [acrylate peptide 3]
cell count after 15 culturing days per cm^2 (MC3T3 H1 osteoblasts [1]; 0.01 μM peptide in the coating solution): about 300,000 cells | cell count after 15 culturing days per cm^2 (MC3T3 H1 osteoblasts [1]; [5]): about 550,000 cells | cell count after 15 culturing days per cm^2 (MC3T3 H1 osteoblasts [1]; [6]): about 1,000,000 cells | cell adhesion, calculated Abs (405 nm), platelets (human platelets; [5]): about 0.2 Abs | cell adhesion, calculated Abs (405 nm), platelets (human platelets; [7]): about 1.5 Abs | cell adhesion, calculated Abs (405 nm), platelets (human platelets; [6]): about 3.0 Abs | cell adhesion, Abs, platelets alone (human platelets; [8]): about 3.0 Abs | cell adhesion, Abs, osteoblasts/platelets inoculated as a mixture [2]: about 6.5 Abs | stimulation of cell adhesion (in words) (MC3T3 H1 osteoblasts [3]; PMMA carriers, comparison of anchor lengths): higher activity | cell adsorption rates increased in comparison with uncoated surfaces (MC3T3 H1 osteoblasts [3]; bone cement shaped articles, FIG. 8): 5-15 fold | maximal adsorption rates (MC3T3 H1 osteoblasts [3]; different PMMA moulded articles, 48,000 cells/cm^2, 1 hour): 80-100% | cell adsorption rates increased in comparison with uncoated surfaces (MC3T3 H1 osteoblasts [3]; porous PMMA/PHEMA granule shaped articles, FIG. 9): 2-5 fold | cell adsorption rates increased in comparison with uncoated surfaces (MC3T3 H1 osteoblasts [3]; porous Plex Y7H granule shaped articles, FIG. 10): 2-3 fold | cell adhesion, calculated Abs (405 nm), osteoblasts (MC3T3 H1 osteoblasts [4]; [5]): about 1.8 Abs | cell adhesion, calculated Abs (405 nm), osteoblasts (MC3T3 H1 osteoblasts [4]; [7]): about 2.0 Abs | cell adhesion, calculated Abs (405 nm), osteoblasts (MC3T3 H1 osteoblasts [4]; [6]): about 6.0 Abs | cell adhesion, Abs, osteoblasts alone (MC3T3 H1 osteoblasts [4]; [8]): about 6.0 Abs
